Values after ≈ are worked out from the molar mass of the structure shown.
Tests used:
Staphylococcus aureus = assay: Antibacterial activity against Staphylococcus aureus ATCC 29213 after 24 hrs by two-fold serial dilution method; assay type: functional; conditions: ATCC 29213, 24 h
HepG2 = assay: Antitumor activity against human HepG2 cells assessed as inhibition of cell proliferation after 48 hrs by MTT assay; assay type: functional, cell-based; conditions: HepG2, 48 h
Aspergillus fumigatus = assay: Antifungal activity against Aspergillus fumigatus 293 after 48 hrs by two-fold serial dilution method; assay type: functional; conditions: Aspergillus fumigatus, 293, 48 h
Ehrlich [1] = assay: Antitumor activity against mouse EAC cells allografted in Swiss mouse assessed as increase in life span at 0.5 mg/mouse administered for 9 days relative to control; assay type: functional
Mus musculus [2] = assay: Toxicity in Swiss albino mouse implanted with mouse EAC cells assessed as WBC count at 0.5 mg/mouse administered for 9 days (reference value: 20.53 10^3/mm3); assay type: organism-based; conditions: in vivo, 216 h
Mus musculus [3] = assay: Toxicity in Swiss albino mouse implanted with mouse EAC cells assessed as hemoglobin level at 0.5 mg/mouse administered for 9 days (reference value: 7.05 g/dl); assay type: organism-based; conditions: in vivo, 216 h
[4] = Displacement of methyl green from DNA (unknown origin) incubated in dark for 24 hrs
Ehrlich [5] = assay: Antitumor activity against mouse EAC cells allografted in Swiss mouse assessed as viable tumor cell count at 0.5 mg/mouse administered for 9 days (reference value: 77.41 10^6/ml); assay type: functional
HeLa = assay: Antitumor activity against human HeLa cells assessed as inhibition of cell proliferation after 48 hrs by MTT assay; assay type: functional, cell-based
WISH = assay: Cytotoxicity against human WISH cells after 48 hrs by MTT assay; assay type: cell-based
Aspergillus flavus = assay: Antifungal activity against Aspergillus flavus 3375 after 48 hrs by two-fold serial dilution method; assay type: functional; conditions: Aspergillus flavus, 3375, 48 h
Ehrlich [6] = assay: Antitumor activity against mouse EAC cells allografted in Swiss mouse assessed as tumor volume at 0.5 mg/mouse administered for 9 days (reference value: 10.15 mL); assay type: functional
WI-38 = assay: Cytotoxicity against human W138 cells after 48 hrs by MTT assay; assay type: cell-based; conditions: WI-38, 48 h
MCF7 = assay: Antitumor activity against human MCF7 cells assessed as inhibition of cell proliferation after 48 hrs by MTT assay; assay type: functional, cell-based; conditions: MCF7, 48 h
Mus musculus [7] = assay: Toxicity in Swiss albino mouse implanted with mouse EAC cells assessed as RBC count at 0.5 mg/mouse administered for 9 days (reference value: 3.59 10^6/mm3); assay type: organism-based; conditions: in vivo, 216 h
Escherichia coli = assay: Antibacterial activity against Escherichia coli ATCC 12435 after 24 hrs by two-fold serial dilution method; assay type: functional; conditions: ATCC 12435, 24 h
Bacillus cereus = assay: Antibacterial activity against Bacillus cereus UW 85 after 24 hrs by two-fold serial dilution method; assay type: functional; conditions: UW 85, 24 h
Ehrlich [8] = assay: Antitumor activity against mouse EAC cells allografted in Swiss mouse assessed as mean survival time at 0.5 mg/mouse administered for 9 days (reference value: 18 day); assay type: functional
[9] = system: Chromobacterium violaceum; assay: Inhibition of quorum sensing system in Chromobacterium violaceum ATCC 12472 assessed as diameter of violacein pigment inhibition at 5 mg/ml after 48 hrs
Pseudomonas aeruginosa = assay: Antibacterial activity against Pseudomonas aeruginosa PAO1 after 24 hrs by two-fold serial dilution method; assay type: functional; conditions: PAO1, 24 h
Candida albicans = assay: Antifungal activity against Candida albicans after 48 hrs by two-fold serial dilution method; assay type: functional

Row | SMILES | MIC (Staphylococcus aureus) | IC50 (HepG2) [µM] | MIC (Aspergillus fumigatus) | Activity (Ehrlich [1]) [%] | Activity (Mus musculus [2]) [×10³ /mm3] | Activity (Mus musculus [3]) [g/dL] | IC50 [4] [µM] | Activity (Ehrlich [5]) [×10⁶ /ml] | IC50 (HeLa; read-out: IC50) [µM] | IC50 (WISH) [µM] | MIC (Aspergillus flavus) | Activity (Ehrlich [6]) [mL] | IC50 (MCF7) [µM] | Activity (Mus musculus [7]) [×10⁶ /mm3] | MIC (Escherichia coli) [µM] | MIC (Bacillus cereus) | MSD (Ehrlich [8]) [days] | diameter of the inhibition zone (DIZ) [9] [mm] | MIC (Pseudomonas aeruginosa) | MIC (Candida albicans) | also measured
1 | CCOC(=O)C1=C(NN=C(C(C)=O)C(C)=O)Nc2[nH]nc(C)c2C1c1ccc(N(C)C)cc1 (stereo not drawn) | 2210 µM | 8.48 | 4420 µM | 172.2 | 8.84 | 13.45 | 35.5 | 27.53 | 17 | 58.7 | 1100 µM | 1.9 | 9.74 | 5.65 | 552 (≈ 250 µg/mL) | 552 µM | 49 | < 2 | 552 µM | 2210 µM | IC50 (WI-38): 61.4 µM
2 | COc1cccc2c1C(=O)c1c(O)c3c(c(O)c1C2=O)C[C@@](O)(C(=O)CO)C[C@@H]3O[C@H]1C[C@H](N)[C@H](O)[C@H](C)O1 [DOXORUBICIN] |  | 4.3 |  | 244.4 | 8.96 | 12.75 | 31.3 | 16.36 |  |  |  | 1 |  | 5.32 |  |  | 62 |  |  |  | IC50 (HeLa): 5.17 µM
3 | CCOC(=O)C1=C(N/C=N/c2ncc(-c3ccccc3)s2)Nc2[nH]nc(C)c2C1c1ccc(N(C)C)cc1 (stereo not drawn) | 59.2 µM | 9.79 | 3790 µM | 88.9 | 11.83 | 11.9 | 74.2 | 48.56 | 15.4 | 29.5 | 3790 µM | 3.8 | 10.1 | 4.85 | 474 (≈ 250 µg/mL) | 59.2 µM | 34 | 3 | 474 µM | 1900 µM | IC50 (WI-38): 33.5 µM
4 | CCOC(=O)C1=C(NN=C(C#N)C#N)Nc2[nH]nc(C)c2C1c1ccc(N(C)C)cc1 (stereo not drawn) | 4780 µM | 13.7 | 2390 µM | 116.7 | 10.69 | 12.65 | 44 | 30.93 | 15.2 | 45.2 | 2390 µM | 2.25 | 12.1 | 5.14 | 2390 (≈ 1000 µg/mL) | 2390 µM | 39 | < 2 | 1190 µM | 2390 µM | IC50 (WI-38): 42.7 µM
5 | CCOC(=O)C1=C(N/N=C(/C(=O)Br)c2ccc(Cl)cc2)Nc2[nH]nc(C)c2C1c1ccc(N(C)C)cc1 (stereo not drawn) | 427 µM | 50.2 | 3410 µM |  |  |  | 80.7 |  | 49.3 |  | 3410 µM |  | 46.3 |  | 1710 (≈ 1000 µg/mL) | 427 µM |  | < 2 | 1710 µM | 3410 µM | 
6 | CCOC(=O)C1=C(N/C=N/c2nnc(S(N)(=O)=O)s2)Nc2[nH]nc(C)c2C1c1ccc(N(C)C)cc1 (stereo not drawn) | 118 µM | 38.1 | 940 µM |  |  |  | 79.1 |  | 26.3 |  | 940 µM |  | 34.5 |  | 940 (≈ 500 µg/mL) | 118 µM |  | 9 | 940 µM | 940 µM | 
7 | CCOC(=O)C1=C(N/C=N/c2ccc([N+](=O)[O-])cc2)Nc2[nH]nc(C)c2C1c1ccc(N(C)C)cc1 (stereo not drawn) | 255 µM | 50.9 | 4090 µM |  |  |  | 59.6 |  | 57.8 |  | 4090 µM |  | 58.6 |  | 128 (≈ 62.5 µg/mL) | 1050 µM |  | 7 | 128 µM | 2040 µM | 
8 | CCOC(=O)C1=C(N)Nc2[nH]nc(C)c2C1c1ccc(N(C)C)cc1 (stereo not drawn) | > 200 µg/mL | 4.24 | > 200 µg/mL | 261.1 | 6.38 | 14.15 | 32.4 | 18.64 | 6.22 | 94.6 | > 200 µg/mL | 1.05 | 5.06 | 6.26 | 683 (≈ 233 µg/mL) | > 200 µg/mL | 65 | < 2 | > 200 µg/mL | > 200 µg/mL | IC50 (WI-38): 84 µM
9 | CCOC(=O)C1=C(N/N=C(\c2ccc([N+](=O)[O-])cc2)N2CCN(c3ccc(F)cc3)CC2)Nc2[nH]nc(C)c2C1c1ccc(N(C)C)cc1 (stereo not drawn) | 749 µM | 90.2 | 3000 µM |  |  |  | 51.8 |  | 87 |  | 3000 µM |  | > 100 |  | 187 (≈ 125 µg/mL) | 374 µM |  | < 2 | 187 µM | 749 µM | 
10 | CCOC(=O)C1=C(N/C=N/c2cccnc2Cl)Nc2[nH]nc(C)c2C1c1ccc(N(C)C)cc1 (stereo not drawn) | 65.1 µM | 4.89 | 521 µM | 227.8 | 8.14 | 13.85 | 30.2 | 21.8 | 4.63 | 60.1 | 521 µM | 1.25 | 4.18 | 5.78 | 65.1 (≈ 31.2 µg/mL) | 65.1 µM | 59 | < 2 | 65.1 µM | 130 µM | IC50 (WI-38): 74.5 µM

From ChEMBL document CHEMBL4270617, “Design, synthesis, antimicrobial, antiquorum-sensing and antitumor evaluation of new series of pyrazolopyridine derivatives” (Eur J Med Chem, 2018)
